Measurements taken from patent US20150306096A1, “8'-HYDROXY-DIHYDROERGOTAMINE COMPOUNDS AND COMPOSITIONS” (MAP Pharmaceuticals, Inc., priority 2012, published 2015).
Read-outs that look alike come from different tables or passages of the source.

Legend:
[1] = molecular target: T1, human 5-HT1B receptor (Homo sapiens, UniProt P28222); test: Radioligand competition binding and kinetics, CHO-K1 membranes
T1 construct: purchased Euroscreen; host or cells: CHO-K1
Procedure: (§1) For kinetics of radioligand competitive binding, serial dilutions were performed from master solution in 100% DMSO to obtain intermediate concentrations 200-fold higher than the concentrations to be tested. Each test sample was diluted 100-fold in the assay buffer and dispensed into the test plate.
5-HT1B Radioligand Binding Assay
Assay buffer: 50 mM Tris (pH 7.4), 12.5 mM MgCl2, 0.1% ascorbic acid, 1 mM EDTA Washing buffer: 50 mM Tris (pH 7.4) Membrane: recombinant CHO-K1-5-HT1B membranes thawed on ice and diluted in assay buffer (7 μg/well)
Ligand: 5-CT (Tocris, 0458)
Radioligand: [^3H]-CT (Perkin Elmer, TRK1038, diluted in assay buffer for a final concentration of 0.6 nM) Filter plate: GF/B Unifilter plate (Perkin Elmer, 6005177) presoaked in 0.5% PEI for 2 hours at RT.
(§2) Determination of the Kon constant. Radioligand association kinetics on each receptor were performed by adding in the wells of a 96 well plate 50 μL of radioligand and 50 μL of membrane extracts. The samples were incubated for the times reported in Table 3 below at a temperature optimized for each receptor and filtered over a filter plate. After washing the filters 5 times with 0.5 mL of ice-cold washing buffer, 50 μL of Microscint 20 (Packard) were added to the filters and the plates were incubated 15 min on an orbital shaker and then counted for 1 min/well. This allowed determination of the kobs for each radioligand. Association kinetics were performed at 5 different radioligand concentrations optimized for each receptor (see Table 3 below) to determine 5 different kobs. The different kobs were then plotted against the [radioligand] and the K. was calculated using the following equation: kon=(kobs−koff)[radioligand].
(§3) Determination of the Koff constant. Radioligand dissociation kinetics on each receptor were performed by adding in the wells of a 96 well plate 45 μL of radioligand and 45 μL of membrane extracts. The samples were incubated as reported in Table 4 below at a temperature optimized for each receptor until binding equilibrium was reached as determined by the association kinetics experiment. Then, 100 μL of cold competitor (reference ligand) were added at a 200 fold excess (final concentration) for the times reported in Table 4 at the optimized temperature. The samples were then filtered over a filter plate. After washing the filters 5 times with 0.5 mL of ice-cold washing buffer, 50 μL of Microscint 20 (Packard) were added to the filters and the plates were incubated 15 min on an orbital shaker and then counted for 1 min/well. This allowed determination of the koff for each radioligand.
Determination of IC50 and Ki constant for each test compound. Radioligand competition binding on each receptor were performed by adding in the wells of a 96 well plate […] of test compound at increasing concentration as reported in Table 5 below, 25 μL of radioligand and 25 μL of membrane extracts. The samples were incubated for 60 min (or 4 hours for a second experiment on 5-HT2B receptors) at a temperature optimized for each receptor and then filtered over a filter plate. After washing the filters 5 times with 0.5 mL of ice-cold washing buffer, 50 μL of Microscint 20 (Packard) were added to the filters and the plates were incubated 15 min on an orbital shaker and then counted for 1 min/well. The test compounds were tested in duplicate at the nanomolar concentrations reported below in Table 5.
Determination of kon and koff constants for each test compound. Each compound was first assessed in a pilot experiment to evaluate its effect on the kinetic binding of each receptor-radioligand pair. These pilot experiments were performed at on compound concentration and were composed of 10 time-points measurements in duplicate (2, 5, 10, 20, 30, 45, 60, 90, 120 and 150 minutes).

[2] = molecular target: T2, human Dopamine D2L receptor (Homo sapiens, UniProt P14416); test: cAMP HTRF functional assay (agonist/antagonist); assay type: cell-based
T2 construct: expressed in transfected cells; host or cells: CHO-K1
Procedure: Functional profiling of agonist and antagonist activities of 8′-OH DHE on human Adrenergic α1D, Dopamine D2L, and Serotonin 5-HT1B, 5-HT1D, 5-HT1F, 5-HT3, 5-HT4e and 5-HT5A receptors (compared against the parent (DHE) molecule) was carried out as follows.
The SPA 35S-GTPγS tests were conducted with Euroscreen membrane preparations […]. The HTRF assays were conducted with recombinant cell lines. The receptor accession numbers, cellular background and reference compounds are as reported below in Table 10.
(2) DHE and 8′-OH DHE were tested for agonist and antagonist activity at the human Dopamine D2L receptor using cAMP HTRF assay (in triplicate) at the following nanomolar concentrations: […]
Agonist activity of the test compounds was expressed as a percentage of the activity of the reference agonist at its EC100 concentration. Antagonist activity of the test compounds was expressed as a percentage of the inhibition of the reference agonist activity at its EC80 concentration. Dose-response data from the test compounds were analyzed with XLfit (IDBS) software using nonlinear regression applied to a sigmoidal dose-response model and the following equation: […]

[3] = molecular target: T3, human 5-HT2B receptor (Homo sapiens, UniProt P41595); test: Radioligand competition binding and kinetics, CHO-K1 membranes
T3 construct: purchased Euroscreen; host or cells: CHO-K1
Procedure: as §1
Ligand: 5-HT (Sigma, H-9523)
as §2, §3
Determination of IC50 and Ki constant for each test compound. […] After washing the filters 5 times with 0.5 mL of ice-cold washing buffer, 50 μL of Microscint 20 (Packard) were added to the filters and the plates were incubated 15 min on an orbital shaker and then counted for 1 min/well. […]
Determination of kon and koff constants for each test compound. Each compound was first assessed in a pilot experiment to evaluate its effect on the kinetic binding of each receptor-radioligand pair. […]

T1 sequence (P28222 whole entry): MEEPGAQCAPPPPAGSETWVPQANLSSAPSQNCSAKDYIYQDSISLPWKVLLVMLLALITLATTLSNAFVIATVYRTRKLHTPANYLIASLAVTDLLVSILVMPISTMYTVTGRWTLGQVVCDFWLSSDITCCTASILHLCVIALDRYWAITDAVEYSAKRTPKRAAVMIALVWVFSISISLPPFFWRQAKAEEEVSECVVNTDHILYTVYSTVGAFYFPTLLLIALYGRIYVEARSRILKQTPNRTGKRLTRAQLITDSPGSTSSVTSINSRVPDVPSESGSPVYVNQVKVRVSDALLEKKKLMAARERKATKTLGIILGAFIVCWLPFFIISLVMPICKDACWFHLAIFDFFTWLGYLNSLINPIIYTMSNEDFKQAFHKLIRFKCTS
T2 sequence (P14416 whole entry): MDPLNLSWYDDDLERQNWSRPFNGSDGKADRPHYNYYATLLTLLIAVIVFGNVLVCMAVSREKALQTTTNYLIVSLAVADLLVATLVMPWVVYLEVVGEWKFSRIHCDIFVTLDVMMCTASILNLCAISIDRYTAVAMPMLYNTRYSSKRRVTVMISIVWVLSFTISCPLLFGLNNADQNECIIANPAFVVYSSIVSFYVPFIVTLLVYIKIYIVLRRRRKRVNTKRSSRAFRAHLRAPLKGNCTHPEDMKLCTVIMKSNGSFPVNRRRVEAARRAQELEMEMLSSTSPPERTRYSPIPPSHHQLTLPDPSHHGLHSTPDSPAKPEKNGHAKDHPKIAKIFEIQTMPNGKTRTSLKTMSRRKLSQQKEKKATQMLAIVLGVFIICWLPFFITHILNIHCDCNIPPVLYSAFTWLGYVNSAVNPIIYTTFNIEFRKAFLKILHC
T3 sequence (P41595 whole entry): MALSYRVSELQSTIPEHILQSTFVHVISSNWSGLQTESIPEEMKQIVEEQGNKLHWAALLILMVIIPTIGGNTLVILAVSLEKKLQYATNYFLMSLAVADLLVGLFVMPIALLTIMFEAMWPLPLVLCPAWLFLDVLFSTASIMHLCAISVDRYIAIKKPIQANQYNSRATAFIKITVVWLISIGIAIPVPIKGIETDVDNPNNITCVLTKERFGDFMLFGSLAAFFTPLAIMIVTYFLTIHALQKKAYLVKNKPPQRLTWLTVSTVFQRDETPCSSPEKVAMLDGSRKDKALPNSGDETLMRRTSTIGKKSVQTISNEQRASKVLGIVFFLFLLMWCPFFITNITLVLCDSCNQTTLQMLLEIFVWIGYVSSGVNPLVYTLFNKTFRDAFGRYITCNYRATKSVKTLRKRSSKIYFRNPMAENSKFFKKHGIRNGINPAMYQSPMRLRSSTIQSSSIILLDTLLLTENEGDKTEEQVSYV

With `CN1C[C@H](C(=O)N[C@]2(C)O[C@@]3(O)[C@@H]4CCCN4C(=O)[C@H](Cc4ccccc4)N3C2=O)C[C@@H]2c3cccc4[nH]cc(c34)C[C@H]21` [DHE, Dihydroergotamine] the IC50 [1] was 0.55 nM, the “Avg Dissociation half-life” value ([1]; 5-HT1B) was 1.38 h and the koff ([1]; read-out: Avg Koff) was 0.00014 s⁻¹. It also gave an EC50 [2] of 0.835 nM and an IC50 [3] of 12.9 nM.

In the case of `CN1C[C@H](C(=O)N[C@]2(C)O[C@@]3(O)[C@@H]4CCC(O)N4C(=O)[C@H](Cc4ccccc4)N3C2=O)C[C@@H]2c3cccc4[nH]cc(c34)C[C@H]21` (stereo partly shown) [8′-OH DHE, 8′-Hydroxy-Dihydroergotamine], the “Avg Dissociation half-life” value ([1]; 5-HT1B) is reported as 1.94 h, the “Avg Koff” value ([1]; 5-HT1B) is reported as 9.83e-05 s⁻¹ and the IC50 ([1]; 5-HT1B, [3H]-CT, read-out: IC50 from binding assay) is reported as 0.77 nM. For the same compound, the EC50 ([2]; Dopamine D2L, cAMP HTRF, read-out: Functional activity (agonist)) was 1.61 nM and the IC50 ([3]; 5-HT2B, [3H]-Mesulergine, read-out: IC50 from binding assay) was 7.73 nM.
